Data taken from patent publication US11807644B2 (PMV Pharmaceuticals, Inc., priority 2020, dated 2023).

Molecular target: T1, recombinant His-tag Y220C p53 DBD protein (Homo sapiens, UniProt P04637, Y220C)
T1 construct: recombinant His-tag Y220C p53 DBD protein (amino acids #˜94-312)
Assay: In vitro DNA binding activity assay (TR-FRET): binding of His-tag Y220C p53 DBD to biotin-labeled consensus DNA
Type: biochemical
Settings: SC150 = concentration to increase DNA binding by […], His-tag Y220C p53 DBD, biotin-labeled consensus DNA

Row | SMILES | Y220C SC150 (μM)
1 | COCCn1cncc1C(=O)NCc1nc(-c2cc3c(N[C@@H]4CCN(C)C[C@@H]4F)cccc3n2CC(F)(F)F)no1 [Compound 268B, N-{[3-(4-{[(3S,4R)-3-fluoro-1-methylpiperidin-4-yl]amino}-1-(2,2,2-trifluoroethyl)-1H-indol-2-yl)-1,2,4-oxadiazol-5-yl]methyl}-1-(2-methoxyethyl)-1H-imidazole-5-carboxamide] | * (* = 0 μM ≤ SC150 < 0.1 μM)
2 | CC[C@@H]1C[C@H]1C(=O)NCc1nc(-c2cc3c(N[C@@H]4CCN(C)C[C@@H]4F)cccc3n2CC(F)(F)F)no1 [Compound 269B, (1R,2R)-2-ethyl-N-{[3-(4-{[(3S,4R)-3-fluoro-1-methylpiperidin-4-yl]amino}-1-(2,2,2-trifluoroethyl)-1H-indol-2-yl)-1,2,4-oxadiazol-5-yl]methyl}cyclopropane-1-carboxamide] | * (* = 0 μM ≤ SC150 < 0.1 μM)
3 | CN1CC[C@@H](Nc2cccc3c2cc(-c2noc(CNC(=O)c4cncn4C(C)(C)C)n2)n3CC(F)(F)F)[C@@H](F)C1 [Compound 270B, 1-tert-butyl-N-{[3-(4-{[(3S,4R)-3-fluoro-1-methylpiperidin-4-yl]amino}-1-(2,2,2-trifluoroethyl)-1H-indol-2-yl)-1,2,4-oxadiazol-5-yl]methyl}-1H-imidazole-5-carboxamide] | * (* = 0 μM ≤ SC150 < 0.1 μM)
4 | CCN1CC[C@@H](Nc2cccc3c2cc(-c2noc(CNC(=O)c4ccn(CCOC)c4)n2)n3CC(F)(F)F)[C@@H](F)C1 [Compound 272B, N-{[3-(4-{[(3S,4R)-1-ethyl-3-fluoropiperidin-4-yl]amino}-1-(2,2,2-trifluoroethyl)-1H-indol-2-yl)-1,2,4-oxadiazol-5-yl]methyl}-1-(2-methoxyethyl)-1H-pyrrole-3-carboxamide] | * (* = 0 μM ≤ SC150 < 0.1 μM)
5 | CCN1CC[C@H](Nc2cccc3c2cc(-c2noc(CNC(=O)c4ccn(CCOC)c4)n2)n3CC(F)(F)F)[C@H](F)C1 [Compound 273B, N-{[3-(4-{[(3R,4S)-1-ethyl-3-fluoropiperidin-4-yl]amino}-1-(2,2,2-trifluoroethyl)-1H-indol-2-yl)-1,2,4-oxadiazol-5-yl]methyl}-1-(2-methoxyethyl)-1H-pyrrole-3-carboxamide] | * (* = 0 μM ≤ SC150 < 0.1 μM)
6 | Cc1c[nH]c2cc(C(=O)NCc3nc(-c4cc5c(N[C@@H]6CCN(C)C[C@@H]6F)cccc5n4CC(F)(F)F)no3)ccc12 [Compound 274B, N-{[3-(4-{[(3S,4R)-3-fluoro-1-methylpiperidin-4-yl]amino}-1-(2,2,2-trifluoroethyl)-1H-indol-2-yl)-1,2,4-oxadiazol-5-yl]methyl}-3-methyl-1H-indole-6-carboxamide] | * (* = 0 μM ≤ SC150 < 0.1 μM)
7 | CN1CC[C@@H](Nc2cccc3c2cc(-c2cc(CNC(=O)c4ccn(C(C)(C)C)c4)cs2)n3CC(F)(F)F)[C@@H](F)C1 [Compound 283B, 1-tert-butyl-N-{[5-(4-{[(3S,4R)-3-fluoro-1-methylpiperidin-4-yl]amino}-1-(2,2,2-trifluoroethyl)-1H-indol-2-yl)thiophen-3-yl]methyl}-1H-pyrrole-3-carboxamide] | ** (** = 0.1 μM ≤ SC150 < 0.5 μM)
8 | CN1CC[C@@H](Nc2cccc3c2cc(-c2cc(CNc4ccc(S(C)(=O)=O)cc4)cs2)n3CC(F)(F)F)[C@@H](F)C1 [Compound 284B, N-[(3S,4R)-3-fluoro-1-methylpiperidin-4-yl]-2-(4-{[(4-methanesulfonylphenyl)amino]methyl}thiophen-2-yl)-1-(2,2,2-trifluoroethyl)-1H-indol-4-amine] | ** (** = 0.1 μM ≤ SC150 < 0.5 μM)

Further lines, results first:

Row | Y220C SC150 (μM) | SMILES
9 | ** (** = 0.1 μM ≤ SC150 < 0.5 μM) | CN1CC[C@@H](Nc2cccc3c2cc(-c2ccc(CNC(=O)c4cnn(C(C)(C)C)c4)cn2)n3CC(F)(F)F)[C@@H](F)C1 [Compound 285B, 1-tert-butyl-N-{[6-(4-{[(3S,4R)-3-fluoro-1-methylpiperidin-4-yl]amino}-1-(2,2,2-trifluoroethyl)-1H-indol-2-yl)pyridin-3-yl]methyl}-1H-pyrazole-4-carboxamide]
10 | * (* = 0 μM ≤ SC150 < 0.1 μM) | CN1CC[C@@H](Nc2cccc3c2cc(-c2nnc(CNC(=O)c4ccn(C(C)(C)C)c4)s2)n3CC(F)(F)F)[C@@H](F)C1 [Compound 286B, 1-tert-butyl-N-{[5-(4-{[(3S,4R)-3-fluoro-1-methylpiperidin-4-yl]amino}-1-(2,2,2-trifluoroethyl)-1H-indol-2-yl)-1,3,4-thiadiazol-2-yl]methyl}-1H-pyrrole-3-carboxamide]
11 | * (* = 0 μM ≤ SC150 < 0.1 μM) | CN1CC[C@@H](Nc2cccc3c2cc(-c2nnc(CNC(=O)c4ccn(C5(C)CCOCC5)c4)s2)n3CC(F)(F)F)[C@@H](F)C1 [Compound 287B, N-{[5-(4-{[(3S,4R)-3-fluoro-1-methylpiperidin-4-yl]amino}-1-(2,2,2-trifluoroethyl)-1H-indol-2-yl)-1,3,4-thiadiazol-2-yl]methyl}-1-(4-methyloxan-4-yl)-1H-pyrrole-3-carboxamide]
12 | * (* = 0 μM ≤ SC150 < 0.1 μM) | CN1CC[C@@H](Nc2cccc3c2cc(-c2nnc(CNC(=O)c4ccn(C(C)(C)C)c4)o2)n3CC(F)(F)F)[C@@H](F)C1 [Compound 288B, 1-tert-butyl-N-{[5-(4-{[(3S,4R)-3-fluoro-1-methylpiperidin-4-yl]amino}-1-(2,2,2-trifluoroethyl)-1H-indol-2-yl)-1,3,4-oxadiazol-2-yl]methyl}-1H-pyrrole-3-carboxamide]
13 | * (* = 0 μM ≤ SC150 < 0.1 μM) | COCC(C)n1ccc(C(=O)NCc2nc(-c3cc4c(N[C@@H]5CCN(C)C[C@@H]5F)cccc4n3CC(F)(F)F)no2)c1 (stereo partly drawn) [Compound 289B, N-{[3-(4-{[(3S,4R)-3-fluoro-1-methylpiperidin-4-yl]amino}-1-(2,2,2-trifluoroethyl)-1H-indol-2-yl)-1,2,4-oxadiazol-5-yl]methyl}-1-(1-methoxypropan-2-yl)-1H-pyrrole-3-carboxamide]
14 | * (* = 0 μM ≤ SC150 < 0.1 μM) | COCCn1cc(C(=O)NCc2nc(-c3cc4c(N[C@@H]5CCN(C)C[C@@H]5F)cccc4n3CC(F)(F)F)no2)cn1 [Compound 290B, N-{[3-(4-{[(3S,4R)-3-fluoro-1-methylpiperidin-4-yl]amino}-1-(2,2,2-trifluoroethyl)-1H-indol-2-yl)-1,2,4-oxadiazol-5-yl]methyl}-1-(2-methoxyethyl)-1H-pyrazole-4-carboxamide]
15 | * (* = 0 μM ≤ SC150 < 0.1 μM) | CN1CC[C@@H](Nc2cccc3c2cc(-c2noc(CNC(=O)c4cn(C(C)(C)C)cn4)n2)n3CC(F)(F)F)[C@@H](F)C1 [Compound 292B, 1-tert-butyl-N-{[3-(4-{[(3S,4R)-3-fluoro-1-methylpiperidin-4-yl]amino}-1-(2,2,2-trifluoroethyl)-1H-indol-2-yl)-1,2,4-oxadiazol-5-yl]methyl}-1H-imidazole-4-carboxamide]
16 | * (* = 0 μM ≤ SC150 < 0.1 μM) | CCN1CC[C@@H](Nc2cccc3c2cc(-c2noc(CNC(=O)c4ccn(CCF)c4)n2)n3CC(F)(F)F)[C@@H](F)C1 [Compound 293B, N-{[3-(4-{[(3S,4R)-1-ethyl-3-fluoropiperidin-4-yl]amino}-1-(2,2,2-trifluoroethyl)-1H-indol-2-yl)-1,2,4-oxadiazol-5-yl]methyl}-1-(2-fluoroethyl)-1H-pyrrole-3-carboxamide]
